Each structure is given as a SMILES string. Where a SMILES comes first, the peptide text is derived from it. [ ]: non-standard residue; d: D form. The star is where a group is joined. Phe(4-guanidino) = N=C(N)Nc1ccc(C[C@H](N)C(=O)O)cc1; Phe(4-F) = N[C@@H](Cc1ccc(F)cc1)C(=O)O; Orn = NCCC[C@H](N)C(=O)O; X1 = O=C(/C=C/c1ccccc1)*; Propionyl = CCC(=O)*

The species entered for one assay is Homo sapiens. Kind of assay: Inhibitory concentration against TRAP-stimulated secretion of 3H serotonin from human platelets. It counts as functional.
For the compound `CC(C)(C)C(=O)NCc1ccc(NC(=O)N2CCC[C@@H]2[C@@H](O)c2ccc(Cl)c(Cl)c2)cc1`, the IC50 – broadly, the midpoint of a concentration-inhibition curve – was more than 10 µM.
The compound `CC(C)(C)C(=O)NCc1ccc(NC(=O)N2CCC[C@H]2[C@H](O)c2ccc(Cl)c(Cl)c2)cc1` yielded an IC50 of more than 10 µM.
Still for that read-out and setting: the result for `CC(C)(C)C(=O)NCc1ccc(NC(=O)N(CC(O)c2cccc(Cl)c2Cl)C2CCC2)cc1` (stereo not given) reads more than 10 µM; that for `CC(C)N(C[C@@H](O)c1ccc(Cl)c(Cl)c1)C(=O)Nc1ccc(CNC(=O)C(C)(C)C)cc1`, 0.7 µM.
As for `CC(C)(C)C(=O)NCc1ccc(NC(=O)N(CC(O)c2ccc(C#N)cc2)C2CCC2)cc1` (stereo not given), the IC50 turned out to be 6 µM.
The same measure, in the same setting: in the case of `CC(C)N(C[C@@H](O)c1ccc(Cl)c(Cl)c1)C(=O)Nc1ccc(NC(=O)c2ccc(F)cc2F)cc1` it was more than 10 µM; in that of `CC(C)N(C[C@@H](O)c1ccc(Cl)c(Cl)c1)C(=O)Nc1ccc(NC(=O)C(C)(C)C)cc1`, more than 10 µM; in that of `C[C@@H]1CC[C@@H]([C@@H](O)c2ccc(Cl)c(Cl)c2)N1C(=O)Nc1ccc(CNC(=O)C(C)(C)C)cc1`, more than 10 µM.
Still for that read-out and setting: the result for `CC(C)(C)C(=O)NCc1ccc(NC(=O)N(CC(O)c2ccc(F)c(F)c2)C2CCC2)cc1` (stereo not given) reads 10 µM; that for `CC(C)(C)C(=O)NCc1ccc(NC(=O)N2CCCC[C@H]2[C@H](O)c2ccc(Cl)c(Cl)c2)cc1`, more than 10 µM; that for `CCCN(C[C@@H](O)c1ccc(Cl)c(Cl)c1)C(=O)Nc1ccc(CNC(=O)C(C)(C)C)cc1`, 1.1 µM.
For `CC(C)(C)C(=O)NCc1ccc(NC(=O)NC[C@@H](O)c2ccc(Cl)c(Cl)c2)cc1`, the 50% inhibitory concentration (IC50) was more than 40 µM.
On the same count and under the same terms, in the case of `CC(C)N(C[C@@H](O)c1ccc(Cl)c(Cl)c1)C(=O)Nc1ccc(CCNC(=O)c2ccc(S(N)(=O)=O)cc2)cc1` it was 0.7 µM; in that of `CC(C)N(C[C@@H](O)c1ccc(Cl)c(Cl)c1)C(=O)Nc1ccc(CNC(=O)C(C)(C)N)cc1`, 1 µM.
Consider `CC(C)(C)C(=O)NCc1ccc(NC(=O)N2C[S+]([O-])C[C@@H]2[C@@H](O)c2ccc(Cl)c(Cl)c2)cc1` (stereo not given in full), for which the IC50 is more than 10 µM.
Still for that read-out and setting: in the case of `CC(C)(C)C(=O)NCc1ccc(NC(=O)N2CCC[C@@H]2[C@H](O)c2ccc(Cl)c(Cl)c2)cc1` it was more than 10 µM.
Still for that read-out and setting: the result for `CC(C)(C)C(=O)NCc1ccc(NC(=O)N(CC(O)c2ccc(Cl)cc2Cl)C2CCC2)cc1` (stereo not given) reads 10 µM; that for `CC(C)(C)C(=O)NCc1ccc(NC(=O)N(C[C@@H](O)c2ccc(Cl)c(Cl)c2)C2CC2)cc1`, 6.7 µM; that for `CC(C)N(C[C@@H](O)c1ccc(Cl)c(Cl)c1)C(=O)Nc1ccc(CNC(=O)c2cccnc2)cc1`, 0.7 µM.
Still for that read-out and setting: the result for `CCCCN(C[C@@H](O)c1ccc(Cl)c(Cl)c1)C(=O)Nc1ccc(CNC(=O)C(C)(C)C)cc1` reads more than 10 µM; that for `CC(C)(C)C(=O)NCc1ccc(NC(=O)N(CC(O)c2ccc(Br)c(Br)c2)C2CCC2)cc1` (stereo not given), 1 µM; that for `O=C1N(C[C@@H](O)c2ccc(Cl)c(Cl)c2)CCN1c1ccccc1`, more than 100 µM.
For `CC(C)N(C[C@@H](O)c1ccc(Cl)c(Cl)c1)C(=O)Nc1ccc(CNC(=O)Nc2ccc(CNC(N)=O)cc2)cc1`, the IC50 amounted to 0.6 µM.
Same read-out and setting: the result for `CC(C)N(C[C@@H](O)c1ccc(Cl)c(Cl)c1)C(=O)Nc1ccc(NC(=O)c2ccc(S(N)(=O)=O)cc2)cc1` reads 1 µM.
With `CCN(C[C@@H](O)c1ccc(Cl)c(Cl)c1)C(=O)Nc1ccc(CNC(=O)C(C)(C)C)cc1`, half-maximal inhibition (IC50) was put at 3.8 µM.
On the same count and under the same terms, in the case of `CC[C@H](C)N(C[C@@H](O)c1ccc(Cl)c(Cl)c1)C(=O)Nc1ccc(CNC(=O)C(C)(C)C)cc1` it was 0.4 µM; in that of `CC(C)CN(C[C@@H](O)c1ccc(Cl)c(Cl)c1)C(=O)Nc1ccc(CNC(=O)C(C)(C)C)cc1`, more than 10 µM; in that of `CC(C)N(C[C@@H](O)c1ccc(Cl)c(Cl)c1)C(=O)Nc1ccc(CNC(=O)c2ccc(S(N)(=O)=O)cc2)cc1`, 0.85 µM.
For `CC[C@@H](C)N(C[C@@H](O)c1ccc(Cl)c(Cl)c1)C(=O)Nc1ccc(CNC(=O)C(C)(C)C)cc1`, the IC50 was found to be 0.23 µM.
`Cc1ccc(C(O)CN(C(=O)Nc2ccc(CNC(=O)C(C)(C)C)cc2)C2CCC2)cc1C` (stereo not given) registered an IC50 of more than 10 µM.
The same measure, in the same setting: the result for `CC(C)(C)C(=O)NCc1ccc(NC(=O)N(CC(O)c2ccc(Cl)c(Cl)c2)C2CCC2)cc1` (stereo not given) reads 0.23 µM; that for `CN(C[C@@H](O)c1ccc(Cl)c(Cl)c1)C(=O)Nc1ccc(CNC(=O)C(C)(C)C)cc1`, 40 µM.
On the same count and under the same terms, the result for `CC(C)(C)C(=O)NCc1ccc(NC(=O)N(C[C@@H](O)c2ccc(Cl)c(Cl)c2)c2ccccc2)cc1` reads more than 10 µM; that for `CC(C)N(C[C@@H](O)c1ccc(Cl)c(Cl)c1)C(=O)Nc1ccc(CCNC(=O)C(C)(C)C)cc1`, more than 10 µM.
Consider `CCCC(C)N(C[C@@H](O)c1ccc(Cl)c(Cl)c1)C(=O)Nc1ccc(CNC(=O)C(C)(C)C)cc1` (stereo not given in full), for which the IC50 turned out to be 1 µM.
Same read-out and setting: the result for `CC(C)N(C[C@@H](O)c1ccc(Cl)c(Cl)c1)C(=O)Nc1ccc(NC(=O)c2cccc3[nH]cnc23)cc1` reads 1 µM; that for `CC(C)(C)C(=O)NCc1ccc(NC(=O)N(C[C@@H](O)c2ccc(Cl)c(Cl)c2)C(C)(C)C)cc1`, 1.7 µM; that for `CC(C)(C)C(=O)NCc1ccc(NC(=O)N2CCCC(O)(c3ccc(Cl)c(Cl)c3)C2)cc1` (stereo not given), 0.5 µM.
Compound `CC(C)N1CC(c2ccc(Cl)c(Cl)c2)CN(c2ccc(CNC(=O)C(C)(C)C)cc2)C1=O` (stereo not given) came in with a half-inhibitory concentration (IC50) of more than 10 µM.
The same measure, in the same setting: the result for `CC(C)(C)C(=O)NCc1ccc(NC(=O)N2CSC[C@@H]2[C@@H](O)c2ccc(Cl)c(Cl)c2)cc1` reads 2.5 µM; that for `CC(C)(C)C(=O)NCc1ccc(NC(=O)N2CCC[C@H]2[C@@H](O)c2ccc(Cl)c(Cl)c2)cc1`, 1.5 µM.
`CC(C)N(C[C@@H](O)c1ccc(Cl)c(Cl)c1)C(=O)Nc1ccc(CCNC(=O)c2cccnc2)cc1` displayed an IC50 of 1.4 µM.
On to `CC(C)N(C[C@@H](O)c1ccc(Cl)c(Cl)c1)C(=O)Nc1ccc(CNC(=O)c2cccc3[nH]cnc23)cc1`, for which the IC50 is 0.45 µM.
Same read-out and setting: in the case of `CC(C)(C)C(=O)NCc1ccc(NC(=O)N(C[C@@H](O)c2ccc(Cl)c(Cl)c2)C2CCCC2)cc1` it was more than 10 µM.
The same measure, in the same setting: the result for `CC(C)N(C[C@@H](O)c1ccc(Cl)c(Cl)c1)C(=O)Nc1ccc(CCNC(=O)c2ccc(F)cc2F)cc1` reads more than 10 µM.
On the same count and under the same terms, the result for `CC(C)N(C[C@@H](O)c1ccc(Cl)c(Cl)c1)C(=O)Nc1ccc(CNC(=O)c2ccc(F)cc2F)cc1` reads 0.9 µM; that for `C[C@H]1CC[C@@H]([C@@H](O)c2ccc(Cl)c(Cl)c2)N1C(=O)Nc1ccc(CNC(=O)C(C)(C)C)cc1`, 0.4 µM.
In the case of `CC(C)N(C[C@@H](O)c1ccc(Cl)c(Cl)c1)C(=O)Nc1ccc(CCNC(=O)c2cccc3[nH]cnc23)cc1`, the midpoint of inhibition, the IC50, lay at 0.36 µM.
Take `CC(C)(C)C(=O)NCc1ccc(NC(=O)N2CCCC[C@H]2[C@@H](O)c2ccc(Cl)c(Cl)c2)cc1`: the IC50 came to 4.3 µM.
As for `CC(C)(C)C(=O)NCc1ccc(NC(=O)N2CCOC(c3ccc(Cl)c(Cl)c3)C2)cc1` (stereo not given), the IC50 is more than 40 µM.
On the same count and under the same terms, in the case of `CC(C)(C)C(=O)NCc1ccc(NC(=O)N(CC(O)c2cc(Cl)cc(Cl)c2)C2CCC2)cc1` (stereo not given) it was more than 10 µM; in that of `CC[C@H]1CC[C@@H]([C@@H](O)c2ccc(Cl)c(Cl)c2)N1C(=O)Nc1ccc(CNC(=O)C(C)(C)C)cc1`, 0.7 µM; in that of `CC(C)(C)C(=O)NCc1ccc(NC(=O)N2CCC(O)(c3ccc(Cl)c(Cl)c3)C2)cc1` (stereo not given), more than 40 µM.
On to `CC(C)(C)C(=O)NCc1ccc(NC(=O)N(CC(O)c2cccc(C#N)c2)C2CCC2)cc1` (stereo not given), for which the IC50 was more than 10 µM.
Compound `CCC(=O)NCCC[C@H](NC(=O)[C@H](CCCN=C(N)N)NC(=O)[C@H](CC(C)C)NC(=O)[C@H](Cc1ccc(NC(=N)N)cc1)NC(=O)[C@H](Cc1ccc(F)cc1)NC(=O)/C=C/c1ccccc1)C(N)=O` (X1-[Phe(4-F)][Phe(4-guanidino)]LR[Orn](Propionyl)-NH2) yielded an IC50 of 0.12 µM.
Compound `CC(C)C[C@H](NC(=O)[C@H](Cc1ccc(NC(=N)N)cc1)NC(=O)[C@H](Cc1ccc(F)cc1)NC(=O)/C=C/c1ccccc1)C(=O)N[C@@H](CCCN=C(N)N)C(=O)N[C@@H](CCCN)C(N)=O` (X1-[Phe(4-F)][Phe(4-guanidino)]LR[Orn]-NH2) returned an IC50 of 0.054 µM.

Target in a further assay: not listed separately
Briefly: Inhibitory activity against thrombin's catalytic activity was determined. It is filed as functional.
In the case of `CC[C@@H](C)N(C[C@@H](O)c1ccc(Cl)c(Cl)c1)C(=O)Nc1ccc(CNC(=O)C(C)(C)C)cc1`, the Ki – broadly, the equilibrium dissociation constant of an inhibitor or competing ligand from its target – is more than 10 µM.

For the next assay, the target named is T1, Proteinase-activated receptor 1 (Homo sapiens, UniProt P25116).
T1 sequence (P25116 whole entry): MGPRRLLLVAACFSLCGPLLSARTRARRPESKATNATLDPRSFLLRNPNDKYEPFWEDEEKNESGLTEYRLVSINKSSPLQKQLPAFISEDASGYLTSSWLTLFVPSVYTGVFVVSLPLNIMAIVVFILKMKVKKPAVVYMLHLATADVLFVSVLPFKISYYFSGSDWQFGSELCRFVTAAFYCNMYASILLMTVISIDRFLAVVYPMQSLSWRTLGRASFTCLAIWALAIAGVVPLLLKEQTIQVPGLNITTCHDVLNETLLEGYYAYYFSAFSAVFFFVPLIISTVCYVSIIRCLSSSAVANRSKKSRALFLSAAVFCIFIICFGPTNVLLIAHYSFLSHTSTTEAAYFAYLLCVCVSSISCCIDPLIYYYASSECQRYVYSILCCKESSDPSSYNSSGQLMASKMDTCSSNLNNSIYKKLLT
Briefly: Binding affinity against platelet thrombin receptor.
Regarding `CC(C)N(C[C@@H](O)c1ccc(Cl)c(Cl)c1)C(=O)Nc1ccc(CNC(=O)C(C)(C)C)cc1`, the IC50 stood at 0.7 µM.
Still for that read-out and setting: in the case of `CC(C)(C)C(=O)NCc1ccc(NC(=O)N(C[C@@H](O)c2ccc(Cl)c(Cl)c2)C2CC2)cc1` it was 2.1 µM; in that of `CC(C)N(C[C@@H](O)c1ccc(Cl)c(Cl)c1)C(=O)Nc1ccc(CNC(=O)c2ccc(S(N)(=O)=O)cc2)cc1`, 1.2 µM.
Same read-out and setting: in the case of `CC[C@@H](C)N(C[C@@H](O)c1ccc(Cl)c(Cl)c1)C(=O)Nc1ccc(CNC(=O)C(C)(C)C)cc1` it was 0.12 µM; in that of `CN(C[C@@H](O)c1ccc(Cl)c(Cl)c1)C(=O)Nc1ccc(CNC(=O)C(C)(C)C)cc1`, 6.6 µM; in that of `CC(C)(C)C(=O)NCc1ccc(NC(=O)N2CCC[C@H]2[C@@H](O)c2ccc(Cl)c(Cl)c2)cc1`, 1.1 µM.
Still for that read-out and setting: in the case of `C[C@H]1CC[C@@H]([C@@H](O)c2ccc(Cl)c(Cl)c2)N1C(=O)Nc1ccc(CNC(=O)C(C)(C)C)cc1` it was 1 µM.

Tested on in a further assay: not listed separately
Kind of assay: Inhibitory activity against ADP or collagen induced platelet activation. It is filed as functional.
`CC[C@@H](C)N(C[C@@H](O)c1ccc(Cl)c(Cl)c1)C(=O)Nc1ccc(CNC(=O)C(C)(C)C)cc1` returned an IC50 of more than 10 µM.

For the origin of these results see ChEMBL document CHEMBL1133805, “Discovery and initial structure-activity relationships of trisubstituted ureas as thrombin receptor (PAR-1) antagonists” (Bioorg Med Chem Lett, 2001).
